Data as given in patent US20230159537A1, “COMPOUND, PREPARATION METHOD THEREOF, AND USE THEREOF IN PREPARATION OF ANTI-CANCER DRUG” (TIANJIN JIKUN MEDICAL TECHNOLOGY CO., LTD., priority 2020, published 2023).

Key:
[1] = biological target: T1, FGFR3 (Homo sapiens, UniProt P22607); assay: HTRF enzyme activity test, FGFR3; assay type: biochemical
T1 construct: made in house; host or cells: Escherichia coli
Protocol: In the present disclosure, the homogeneous time-resolved fluorescence (HTRF) technology was used to evaluate an inhibitory effect of a compound on the four subtypes FGFR1, FGFR2, FGFR3, and FGFR4. FGFR1, FGFR2, FGFR3, and FGFR4 prokaryotic expression vectors were first constructed; and when the prokaryotic expression vectors were identified as correct, FGFR proteins were expressed and purified on a large scale in an Escherichia coli (E. coli) system, and protein concentrations were determined. Resulting proteins were stored in aliquots. Before an enzyme activity test was started, cisbio HTRF KinEA (62TK0PEB) was used to pre-dilute each component required in an enzyme activity system with an enzyme activity buffer to a required working concentration. A 384-well plate (66PL384025) was prepared, 5 μL of a protein solution, 1 μL of a compound, and 2 μL of a substrate were added to each well, and 2 μL of ATP was finally added to initiate a reaction. Three parallel experiments were set for each concentration. […] The 384-well plate was sealed and incubated at room temperature for about 1 h. […] Finally, the TECAN infinite M1000PRO multi-function microplate reader was used to detect a fluorescence signal, an inhibition rate was calculated, and an IC50 value was fitted with GraphPad Prism 7.0.

[2] = tested on: Huh-7; assay: MTT cell proliferation assay, Huh-7; assay type: cell-based; details: tumor cells with normal FGFR expression (Huh-7, A549 of Table 2)
[3] = tested on: A549; assay: cells; details: Homo sapiens, A549, 96 h, read-out: Anti-proliferation IC50 A549

T1 sequence (P22607 23-806): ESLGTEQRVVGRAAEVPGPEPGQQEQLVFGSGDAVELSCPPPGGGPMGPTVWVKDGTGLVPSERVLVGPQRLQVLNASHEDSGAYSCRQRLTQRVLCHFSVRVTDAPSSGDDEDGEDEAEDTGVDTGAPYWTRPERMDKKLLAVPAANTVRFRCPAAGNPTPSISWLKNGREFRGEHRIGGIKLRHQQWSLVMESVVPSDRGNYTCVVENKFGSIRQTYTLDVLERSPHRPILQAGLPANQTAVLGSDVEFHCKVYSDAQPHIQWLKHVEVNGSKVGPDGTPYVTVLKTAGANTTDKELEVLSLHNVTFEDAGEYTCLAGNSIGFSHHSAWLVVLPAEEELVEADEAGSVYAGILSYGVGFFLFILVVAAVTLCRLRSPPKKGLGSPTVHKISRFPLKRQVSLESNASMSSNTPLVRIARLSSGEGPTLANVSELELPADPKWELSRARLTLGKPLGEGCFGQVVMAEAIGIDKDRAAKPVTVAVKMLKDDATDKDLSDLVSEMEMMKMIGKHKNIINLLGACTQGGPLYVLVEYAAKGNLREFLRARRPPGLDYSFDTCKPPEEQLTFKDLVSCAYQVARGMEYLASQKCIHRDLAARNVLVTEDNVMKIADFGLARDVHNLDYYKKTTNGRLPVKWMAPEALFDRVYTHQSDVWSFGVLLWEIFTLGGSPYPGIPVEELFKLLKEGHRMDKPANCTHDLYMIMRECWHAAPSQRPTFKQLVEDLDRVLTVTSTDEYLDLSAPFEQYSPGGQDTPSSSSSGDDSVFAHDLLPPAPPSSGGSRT

C=CC(=O)N1CCN(CCCCCn2nc(-c3cccc(OCc4ccccc4)c3)c3c(N)ncnc32)CC1 [Compound 26] was tested, and the IC50 [1] was > 5000 nM.

In the case of COc1cc(OC)cc(-c2nn(CCCCCN3CCN(C(=O)/C=C/C(F)(F)F)CC3)c3ncnc(N)c23)c1 [Compound 36], the “inhibitory effect on tumor cells with normal FGFR expression (in words)” value [2] is reported as “no obvious inhibitory effect” and the IC50 [3] is reported as > 10 µM.
